Measured values reported in patent publication US20180289637A1, “SUBSTITUTED CYCLOHEXANONES” (CLEXIO BIOSCIENCES LTD., priority 2016, published 2018).

How the values were obtained:
[1] = Oral Single Dose PK Study in Rats
Procedure: Male SD rats, 3 per timepoint, alternative timepoints, were used. […] Plasma was sampled at 10 min, 30 min, 1 h, 2 h, 3 h, 4 h, 7 h, 12 h, 24 h, and 30 h. The PK of the parent compound (deuterated and non-deuterated), as well as norketamine (deuterated and non-deuterated), 6-OH-norketamine (deuterated and non-deuterated), and dehydronorketamine (deuterated and non-deuterated) were analyzed.

C57Bl/6 strain mice = test: Tail Suspension Test (mice), Example 13; conditions: 120 mg/kg oral gavage
SD male rats [2] = test: Forced Swim Test (rats), Example 14; type: in vivo
Procedure: The compounds were prepared by a chemist and coded, so the researcher was blinded to the treatment.

[3] = Stability of alpha-d2-(R/S)-ketamine in phosphate-buffered saline at various pH levels; type: physicochemical
Procedure: Incubations of (d2) (R/S)-ketamine (e.g., 1 μM) with PBS (pH 2.0, 7.4 and 8.4) were carried out using a Tecan Liquid Handling System (Tecan), or equivalent, at 37±1° C. in 0.2-mL incubation mixtures (final volume) containing PBS, at the final concentrations indicated in a 96-well plate format. The test article was added to the incubation mixtures in water. […] Incubations were carried out in triplicate with an exception for zero-time samples (which were incubated in quadruplicate). The samples were centrifuged (e.g., 920×g for 10 min at 10° C.) and the supernatant fractions analyzed by LC-MS/MS. Non-deuterated (d0) (R/S)-ketamine was used as an internal standard. The amount of unchanged test article and formation of non-deuterated (d0) (R/S)-ketamine was monitored based on peak area ratio of the analyte/internal standard.

[4] = in vivo; cited from earlier work
NMDA receptor = conditions: inhibition of MK-801 binding; cited from earlier work
SD male rats [5] = test: Forced Swim Test (rats), Example 12
[6] = In vitro metabolism in rat liver microsomes; conditions: 15 min, 10 μM, listed as d2 S-ketamine
Procedure: (§1) Incubations were initiated by the addition of nicotinamine adenine dinucleotide phosphate (NADPH, 1 mM) and terminated by the addition of methanol. Samples were vortex mixed, stored on ice, and the samples were centrifuged at 1400×g for 5 minutes. Supernatants were removed from the microsome pellets and stored in new tubes at approximately −20° C. until analysis.
(§2) Metabolites generated in microsome incubation samples were characterized by LC-MS/MS using a LTQ Orbitrap XL with electrospray ionization in positive ion mode. Semi-quantitation of the metabolites present in the samples was based on LC MS peak areas of the putative metabolites.

[7] = In Vitro Liver Microsomal Stability Assay; conditions: 1 μM, 0.5 mg per mL liver microsomal protein, about 37° C.
Procedure: Test articles were added for a final assay concentration of 1 μM and incubated at about 37° C. Reactions were started by addition of the cofactor, and were stopped at four designated time points (0, 15, 30 and 60 min) by the addition of an equal volume of stop reagent (e.g., acetonitrile containing an internal standard, 0.2 mL). Samples were then centrifuged at 920×g centrifugal force for 10 min at 10° C. to precipitate the proteins. Supernatants were analysed by LC/MS/MS.

[8] = In vitro metabolism in human liver microsomes; conditions: 30 min, 10 μM, listed as d2 S-ketamine
Procedure: as §1, §2

[9] = male, SD, rat, plasma, po, 15 mg/kg
[10] = male, SD, rat, plasma, po, 15 mg/kg, AUC0-t of Esketamine (deuterated and non-deuterated), 15 mg/kg p.o., rats
[11] = male, SD, rat, plasma, po, 15 mg/kg, AUC0-t, 15 mg/kg p.o., male SD rats
[12] = male, SD, rat, plasma, po, 60 mg/kg
[13] = male, SD, rat, plasma, po, 60 mg/kg, AUC0-t of Esketamine (deuterated and non-deuterated), 60 mg/kg p.o., rats
[14] = male, SD, rat, plasma, po, 60 mg/kg, AUC0-t, 60 mg/kg p.o., male SD rats

Question: With `CN[C@]1(c2ccccc2Cl)CCCCC1=O` [Esketamine, S-ketamine, reference compound] as the molecule, how does the “Dehydronorketamine as metabolite (in words)” value ([1]; 15 and 60 mg/kg p.o., rats) read?
Answer: minor metabolite

Question: And the Cmax [1, 9]?
Answer: 200 ng/mL

Question: And the Tmax [1, 9]?
Answer: 0.5 h

Question: What about the AUC(0-t) [1, 10] of the same molecule?
Answer: 183 ng·h/mL

Question: And the AUC(0-t) [1, 11]?
Answer: 183 ng·h/mL

Question: What about the Cmax [1, 12] of the same molecule?
Answer: 165 ng/mL

Question: And the AUC(0-t) [1, 13]?
Answer: 498 ng·h/mL

Question: What about the AUC(0-t) ([1]; male, SD, rat, plasma, po, 60 mg/kg, AUC0-t of Esketamine, value in brackets (24 hr time point excluded), 60 mg/kg p.o., rats) of the same molecule?
Answer: 311 ng·h/mL

Question: And the AUC(0-t) [1, 14]?
Answer: 498 ng·h/mL

Question: And the AUC(0-t) ([1]; male, SD, rat, plasma, po, 60 mg/kg, AUC0-t, 24 hr time point excluded, 60 mg/kg p.o., 24 hr time point excluded (7 hr was BLQ))?
Answer: 311 ng·h/mL

Question: And the adverse clinical symptoms (C57Bl/6 strain mice)?
Answer: adverse clinical symptoms of vocalization, ataxia and drowsiness

Question: And the mortality (C57Bl/6 strain mice; 20 minutes after the oral gavage)?
Answer: One of the animals was found dead

Question: And the “reduction in immobility time” value (SD male rats [2]; 30 mg/kg, 30 min before the test (route printed as orally, i.p. in table))?
Answer: 60%

Question: Which results are given for `[2H]C1([2H])CCCC(NC)(c2ccccc2Cl)C1=O` (racemic) [d2-ketamine, alpha-d2-(R/S)-ketamine]?
Answer: Mean percent remaining (0 min) ([3]; PBS pH 2.0, 37±1° C.): 100%; Mean percent remaining (30 min) ([3]; PBS pH 2.0, 37±1° C.): 94.6%; Mean percent remaining (60 min) ([3]; PBS pH 2.0, 37±1° C.): 98.8%; Mean percent remaining (120 min) ([3]; PBS pH 2.0, 37±1° C.): 93.9%; Mean percent remaining (0 min) ([3]; PBS pH 7.4, 37±1° C.): 100%; Mean percent remaining (30 min) ([3]; PBS pH 7.4, 37±1° C.): 98.3%; Mean percent remaining (60 min) ([3]; PBS pH 7.4, 37±1° C.): 99.0%; Mean percent remaining (120 min) ([3]; PBS pH 7.4, 37±1° C.): 96.0%; Mean percent remaining (0 min) ([3]; PBS pH 8.4, 37±1° C.): 100%; Mean percent remaining (30 min) ([3]; PBS pH 8.4, 37±1° C.): 96.4%; Mean percent remaining (60 min) ([3]; PBS pH 8.4, 37±1° C.): 99.6%; Mean percent remaining (120 min) ([3]; PBS pH 8.4, 37±1° C.): 95.1%

Question: With `NC1(c2ccccc2Cl)CCCCC1=O` (racemic) [norketamine, N-desmethylketamine] as the molecule, how does the elimination half-life [4] read?
Answer: 4 h

Question: For `N[C@]1(c2ccccc2Cl)CCCCC1=O` [(S)-norketamine], which “affinity for the NMDA receptor relative to the (R)-enantiomer” value (NMDA receptor) is on record?
Answer: 8 times

Question: Which elimination half-life [4] does the source give for `CNC1(c2ccccc2Cl)CCCCC1=O` (racemic) [Ketamine, ketamine, reference compound] here?
Answer: 2 to 3 h

Question: What about the “reduction in immobility time by manual counting” value (SD male rats [5]; 30 mg/kg i.p., 30 min before test) of the same molecule?
Answer: 54%

Question: With `[2H]C1([2H])CCC[C@](NC)(c2ccccc2Cl)C1=O` [Example 1, (2S)-2-(2-chlorophenyl)-6,6-dideuterio-2-[deuterio(methyl)amino]cyclohexanone, deuterium chloride] as the molecule, how does the “% Peak Area, component S-ketamine (parent remaining)” value [6] read?
Answer: 2.6%

Question: What about the “increase in degradation half-life as compared to non-isotopically enriched ketamine” value [7] of the same molecule?
Answer: 18%

Question: What about the “6-OH norketamine levels (in words)” value ([1]; 15 and 60 mg/kg p.o., rats) of the same molecule?
Answer: lower

Question: And the “Dehydronorketamine as metabolite (in words)” value ([1]; 15 and 60 mg/kg p.o., rats)?
Answer: minor metabolite

Question: What about the “Norketamine levels as compared to esketamine (in words)” value ([1]; 15 and 60 mg/kg p.o., rats) of the same molecule?
Answer: higher

Question: What about the Cmax [1, 9] of the same molecule?
Answer: 136 ng/mL

Question: What about the AUC(0-t) [1, 10] of the same molecule?
Answer: 114 ng·h/mL

Question: What about the AUC(0-t) [1, 11] of the same molecule?
Answer: 114 ng·h/mL

Question: What about the Cmax [1, 12] of the same molecule?
Answer: 163 ng/mL

Question: And the AUC(0-t) [1, 13]?
Answer: 268 ng·h/mL

Question: And the AUC(0-t) [1, 14]?
Answer: 268 ng·h/mL

Question: What about the “plasma exposure to the parent compound (in words)” value ([1]; single oral administration of 15 or 60 mg/kg, male SD rats, S-ketamine D2 vs S-ketamine) of the same molecule?
Answer: essentially unchanged

Question: And the adverse clinical symptoms (C57Bl/6 strain mice)?
Answer: adverse clinical symptoms of vocalization, ataxia and drowsiness

Question: What about the “effect at 30 mg/kg (in words)” value (SD male rats [2]; 30 min before the test) of the same molecule?
Answer: less pronounced compared to the lower dose

Question: What about the “reduction in immobility time” value (SD male rats [5]; 120 mg/kg p.o., 75-90 min after the treatment) of the same molecule?
Answer: ~25%

Question: What about the “antidepressant-like effect on immobility time (in words)” value (SD male rats [5]; 60 or 120 mg/kg p.o., 75-90 min after the treatment) of the same molecule?
Answer: dose-response trend

Question: What about the “% Peak Area, component S-ketamine (parent remaining)” value [8] of the same molecule?
Answer: 33.6%
